According to PubChem BioAssay (NCI):
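1) Cells in 96-well plates. 2) Compound, 48 h, 5 concentrations. 3) Linear interpolation between surrounding doses. 4) Unreached endpoint = highest concentration. TGI marks complete inhibition of growth.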

Experiments:
Test in all cases: NCI anticancer screen, dose series, 48 h
786-0 renal = test system: 786-0 renal
A498 renal = test system: A498 renal
A549 NSCLC = test system: A549 NSCLC
ACHN renal = test system: ACHN renal
BT-549 breast = test system: BT-549 breast
CAKI-1 renal = test system: CAKI-1 renal
COLO 205 colon = test system: COLO 205 colon
DU-145 prostate = test system: DU-145 prostate
EKVX NSCLC = test system: EKVX NSCLC
HCT-116 colon = test system: HCT-116 colon
HCT-15 colon = test system: HCT-15 colon
HL-60(TB) leukemia = test system: HL-60(TB) leukemia
HOP-62 NSCLC = test system: HOP-62 NSCLC
HOP-92 NSCLC = test system: HOP-92 NSCLC
HS 578T breast = test system: HS 578T breast
HT29 colon = test system: HT29 colon
IGROV1 ovarian = test system: IGROV1 ovarian
K-562 leukemia = test system: K-562 leukemia
KM12 colon = test system: KM12 colon
LOX IMVI melanoma = test system: LOX IMVI melanoma
M14 melanoma = test system: M14 melanoma
MALME-3M melanoma = test system: MALME-3M melanoma
MCF7 breast = test system: MCF7 breast
MDA-MB-231 breast = test system: MDA-MB-231 breast
MDA-MB-435 = test system: MDA-MB-435
MOLT-4 leukemia = test system: MOLT-4 leukemia
NCI-H226 lung = test system: NCI-H226 lung
NCI-H23 lung = test system: NCI-H23 lung
NCI-H460 lung = test system: NCI-H460 lung
NCI-H522 lung = test system: NCI-H522 lung
OVCAR-4 ovarian = test system: OVCAR-4 ovarian
OVCAR-5 ovarian = test system: OVCAR-5 ovarian
OVCAR-8 ovarian = test system: OVCAR-8 ovarian
PC-3 prostate = test system: PC-3 prostate
RPMI-8226 leukemia = test system: RPMI-8226 leukemia
RXF 393 renal = test system: RXF 393 renal
SF-268 CNS = test system: SF-268 CNS
SF-295 CNS = test system: SF-295 CNS
SF-539 CNS = test system: SF-539 CNS
SK-MEL-2 melanoma = test system: SK-MEL-2 melanoma
SK-MEL-28 melanoma = test system: SK-MEL-28 melanoma
SK-MEL-5 melanoma = test system: SK-MEL-5 melanoma
SK-OV-3 ovarian = test system: SK-OV-3 ovarian
SN12C renal = test system: SN12C renal
SNB-19 CNS = test system: SNB-19 CNS
SNB-75 CNS = test system: SNB-75 CNS
SW-620 colon = test system: SW-620 colon
T-47D breast = test system: T-47D breast
TK-10 renal = test system: TK-10 renal
U251 CNS = test system: U251 CNS
UACC-257 melanoma = test system: UACC-257 melanoma
UACC-62 melanoma = test system: UACC-62 melanoma
UO-31 renal = test system: UO-31 renal
HCC-2998 colon = test system: HCC-2998 colon
OVCAR-3 ovarian = test system: OVCAR-3 ovarian
SR leukemia = test system: SR leukemia

Q: With COc1cc2c(/C=C3/C(=O)Nc4ccc(O)cc43)c(Cl)[nH]c2cc1C as the compound, how does the TGI (786-0 renal) read?
A: 16.7 µM

Q: What about the TGI (A498 renal) of the same compound?
A: 24.6 µM

Q: And the TGI (A549 NSCLC)?
A: 32.9 µM

Q: What about the TGI (ACHN renal) of the same compound?
A: 1.64 µM

Q: And the TGI (BT-549 breast)?
A: 3.84 µM

Q: What about the TGI (CAKI-1 renal) of the same compound?
A: 3.19 µM

Q: What about the TGI (COLO 205 colon) of the same compound?
A: 0.894 µM

Q: And the TGI (DU-145 prostate)?
A: 7.55 µM

Q: And the TGI (EKVX NSCLC)?
A: 26.8 µM

Q: And the TGI (HCT-116 colon)?
A: 6.61 µM

Q: What about the TGI (HCT-15 colon) of the same compound?
A: 1.17 µM

Q: And the TGI (HL-60(TB) leukemia)?
A: 4.08 µM

Q: And the TGI (HOP-62 NSCLC)?
A: 4.55 µM

Q: What about the TGI (HOP-92 NSCLC) of the same compound?
A: 42.6 µM

Q: What about the TGI (HS 578T breast) of the same compound?
A: 28.5 µM

Q: And the TGI (HT29 colon)?
A: 5.42 µM

Q: What about the TGI (IGROV1 ovarian) of the same compound?
A: 20.5 µM

Q: And the TGI (K-562 leukemia)?
A: 16 µM

Q: And the TGI (KM12 colon)?
A: 5.35 µM

Q: What about the TGI (LOX IMVI melanoma) of the same compound?
A: 11.9 µM

Q: What about the TGI (M14 melanoma) of the same compound?
A: 2.02 µM

Q: What about the TGI (MALME-3M melanoma) of the same compound?
A: 1.38 µM

Q: And the TGI (MCF7 breast)?
A: > 100 µM

Q: What about the TGI (MDA-MB-231 breast) of the same compound?
A: 4.25 µM

Q: And the TGI (MDA-MB-435)?
A: 0.0441 µM

Q: What about the TGI (MOLT-4 leukemia) of the same compound?
A: 0.387 µM

Q: What about the TGI (NCI-H226 lung) of the same compound?
A: 3.77 µM

Q: And the TGI (NCI-H23 lung)?
A: 3.78 µM

Q: What about the TGI (NCI-H460 lung) of the same compound?
A: 19.2 µM

Q: And the TGI (NCI-H522 lung)?
A: 19.5 µM

Q: And the TGI (OVCAR-4 ovarian)?
A: 3.38 µM

Q: And the TGI (OVCAR-5 ovarian)?
A: 30.8 µM

Q: What about the TGI (OVCAR-8 ovarian) of the same compound?
A: 7.77 µM

Q: And the TGI (PC-3 prostate)?
A: 22.2 µM

Q: And the TGI (RPMI-8226 leukemia)?
A: 1.34 µM

Q: And the TGI (RXF 393 renal)?
A: 30.5 µM

Q: And the TGI (SF-268 CNS)?
A: 26.4 µM

Q: And the TGI (SF-295 CNS)?
A: 13.5 µM

Q: What about the TGI (SF-539 CNS) of the same compound?
A: 0.185 µM

Q: And the TGI (SK-MEL-2 melanoma)?
A: 29.2 µM

Q: What about the TGI (SK-MEL-28 melanoma) of the same compound?
A: 0.0526 µM

Q: And the TGI (SK-MEL-5 melanoma)?
A: 3.29 µM

Q: And the TGI (SK-OV-3 ovarian)?
A: 2.48 µM

Q: What about the TGI (SN12C renal) of the same compound?
A: 3.06 µM

Q: And the TGI (SNB-19 CNS)?
A: 22.3 µM

Q: And the TGI (SNB-75 CNS)?
A: 20 µM

Q: What about the TGI (SW-620 colon) of the same compound?
A: 20 µM

Q: And the TGI (T-47D breast)?
A: 7.85 µM

Q: What about the TGI (TK-10 renal) of the same compound?
A: 26.1 µM

Q: What about the TGI (U251 CNS) of the same compound?
A: 2.99 µM

Q: And the TGI (UACC-257 melanoma)?
A: 21.9 µM

Q: What about the TGI (UACC-62 melanoma) of the same compound?
A: 3.08 µM

Q: What about the TGI (UO-31 renal) of the same compound?
A: 21.1 µM

Q: With O=c1cc(-c2ccccc2)[nH]c2ccc(N3CCCCC3)cc12 as the compound, how does the TGI (786-0 renal) read?
A: 43.1 µM

Q: And the TGI (ACHN renal)?
A: > 100 µM

Q: And the TGI (BT-549 breast)?
A: > 100 µM

Q: What about the TGI (CAKI-1 renal) of the same compound?
A: > 100 µM

Q: And the TGI (COLO 205 colon)?
A: > 100 µM

Q: What about the TGI (DU-145 prostate) of the same compound?
A: > 30.3 µM

Q: And the TGI (EKVX NSCLC)?
A: > 100 µM

Q: What about the TGI (HCC-2998 colon) of the same compound?
A: > 22.5 µM

Q: And the TGI (HCT-15 colon)?
A: > 100 µM

Q: What about the TGI (HL-60(TB) leukemia) of the same compound?
A: < 0.028 µM

Q: What about the TGI (HOP-62 NSCLC) of the same compound?
A: 47.4 µM

Q: And the TGI (HOP-92 NSCLC)?
A: 53.6 µM

Q: What about the TGI (HS 578T breast) of the same compound?
A: > 100 µM

Q: And the TGI (IGROV1 ovarian)?
A: > 100 µM

Q: What about the TGI (K-562 leukemia) of the same compound?
A: > 100 µM

Q: What about the TGI (KM12 colon) of the same compound?
A: 0.0909 µM

Q: And the TGI (LOX IMVI melanoma)?
A: > 100 µM

Q: And the TGI (M14 melanoma)?
A: > 100 µM

Q: And the TGI (MALME-3M melanoma)?
A: > 100 µM

Q: What about the TGI (MCF7 breast) of the same compound?
A: > 67.9 µM

Q: What about the TGI (MDA-MB-231 breast) of the same compound?
A: > 100 µM

Q: And the TGI (MOLT-4 leukemia)?
A: > 100 µM

Q: And the TGI (NCI-H226 lung)?
A: 0.0706 µM

Q: What about the TGI (NCI-H23 lung) of the same compound?
A: 6.86 µM

Q: What about the TGI (NCI-H460 lung) of the same compound?
A: > 100 µM

Q: And the TGI (NCI-H522 lung)?
A: > 100 µM

Q: What about the TGI (OVCAR-3 ovarian) of the same compound?
A: 2.89 µM

Q: What about the TGI (OVCAR-4 ovarian) of the same compound?
A: > 100 µM

Q: What about the TGI (OVCAR-5 ovarian) of the same compound?
A: > 100 µM

Q: What about the TGI (OVCAR-8 ovarian) of the same compound?
A: > 44.9 µM

Q: And the TGI (PC-3 prostate)?
A: > 100 µM

Q: And the TGI (RPMI-8226 leukemia)?
A: > 100 µM

Q: And the TGI (SF-268 CNS)?
A: > 53.2 µM

Q: And the TGI (SF-295 CNS)?
A: 0.0474 µM

Q: And the TGI (SF-539 CNS)?
A: 0.549 µM

Q: What about the TGI (SK-MEL-2 melanoma) of the same compound?
A: > 100 µM

Q: What about the TGI (SK-MEL-28 melanoma) of the same compound?
A: > 100 µM

Q: What about the TGI (SK-MEL-5 melanoma) of the same compound?
A: 4.2 µM

Q: What about the TGI (SK-OV-3 ovarian) of the same compound?
A: > 59.7 µM

Q: What about the TGI (SN12C renal) of the same compound?
A: > 100 µM

Q: And the TGI (SNB-19 CNS)?
A: > 100 µM

Q: What about the TGI (SR leukemia) of the same compound?
A: > 100 µM

Q: And the TGI (SW-620 colon)?
A: > 100 µM

Q: What about the TGI (T-47D breast) of the same compound?
A: > 100 µM

Q: What about the TGI (TK-10 renal) of the same compound?
A: > 100 µM

Q: And the TGI (U251 CNS)?
A: > 45.9 µM

Q: And the TGI (UACC-257 melanoma)?
A: > 100 µM

Q: And the TGI (UACC-62 melanoma)?
A: > 100 µM
